Source: patent publication US12207655B2, “Protoporphyrin IX derivatives and use thereof to improve the health of plants” (priority 2019, dated 2025)

How the values were obtained:
[1] = test system: Pseudomonas syringae pv. tabaci; assay: Photodynamic control of Pseudomonas syringae pv. tabaci in PBS, colony counts after illumination; type: cell-based; conditions: 30 min dark then 1 hour illumination (about 1000 μmol/m2/s PAR), PBS control 8.7
Procedure: In this example, control of the gram-negative bacterial plant pathogen Pseudomonas syringae pv. tabaci with PP IX and modified PP IX was assessed, with and without chelating agents. Treatments were prepared in Phosphate Buffered Saline (PBS) in 96 well plates at desired concentrations. A bacterial suspension was inoculated into the PBS and incubated at 28° C. in the dark for 30 minutes. After 30 minutes, the 96 well plate was placed under illumination for 1 hour (at 21° C.). Following illumination, bacterial suspensions were serially diluted and 10 μL of each dilution is spread uniformly on Tryptic Soy Agar (TSA) plates and placed in the dark in an incubator at 28° C. for 48 hours. After 48 hours, bacterial colonies were counted, and the results were log transformed (log colony forming units (CFU)/mL). The relative inactivation was determined by taking the difference between log CFU (PBS control) and log CFU (treatments). Sample Illumination was provided by LED lights (Heliospectra RX30) emitting about 1000 μmol/m^2/s photosynthetically active radiation (PAR).

Sclerotinia homoeocarpa = assay: Control of dollar spot fungus: radial growth of fungal plugs on PDA after treatment in PBS, dark vs light; type: cell-based; conditions: 31 μM + 0.21% BrijO10:ArlasolveDMI (1:4); for Mean Radial Growth: growth between 24 and 48 hours at 21° C; for % Inhibition: relative to non-amended control
Procedure: In this example, control of dollar spot fungus (Sclerotinia homoeocarpa) with PP IX and modified PP IX was assessed. Treatments were prepared in Phosphate Buffered Saline (PBS) in 24 well plates (in duplicates for light vs. dark incubation) at desired concentrations. Then, a 5 mm diameter plug of a Sclerotinia homoeocarpa isolate (3 isolates total tested) was inoculated into the PBS and incubated at 21° C. in the dark for 2 hours. After 2 hours, one of the 24 well plates (with isolates in triplicate) was left in the dark and one 24 well plate was placed under illumination for 1 hour (all at […]). Following illumination, fungal plugs were removed from PBS, blotted dry on sterile filter paper and transferred to non-amended Potato Dextrose Agar (PDA). Radial growth of the fungus was monitored daily until the growth of S. homoeocarpa reaches the edge of the Petri-dish. Illumination was provided by LED lights emitting about 1000 μmol/m2/s photosynthetically active radiation (PAR).

Protoporphyrin IX disodium salt [PP IX disodium salt]
log CFU/ml ([1]; 10 μM + 5 mM NaEDTA in PBS): 3.8 log CFU/ml
log CFU/ml ([1]; 10 μM in PBS, no chelating agent): 7.4 log CFU/ml
Mean Radial Growth (Sclerotinia homoeocarpa; Dark (no light exposure), PBS control 10.1): 10.5
% Inhibition (Sclerotinia homoeocarpa; Dark (no light exposure)): −3.8%
Mean Radial Growth (Sclerotinia homoeocarpa; Exposed to light for 1 hour (1000 PAR), PBS control 10.2): 0.0
% Inhibition (Sclerotinia homoeocarpa; Exposed to light for 1 hour (1000 PAR)): 100.0%
